Laboratory results reported in US7125847B1, “Mechanically activated channel blocker” (priority 2000, dated 2006).

What was measured:
[1] = tested on: swelling-activated currents in ventricular myocytes; experiment: Perforated patch whole-cell swelling-activated currents in ventricular myocytes from rabbits with aortic regurgitation-induced CHF; format: cell-based, rabbit; details: 0.4 μM
Method: Ventricular myocytes were freshly isolated from New Zealand white rabbits with aortic regurgitation induced congestive heart failure using a collagenase-pronase dispersion method (Clemo et al., 1997, supra). Cells were stored in a modified Kraft-Bruhe solution (KOH 132 mM, glutamic acid 120 mM, KCl 2.5 mM, KH2PO4 10 mM, MgSO4 1.8 mM, K2EGTA 0.5 mM, glucose 11 mM, taurine 10 mM, Hepes 10 mM, pH 7.2). Myocytes were used within 6 h of harvesting and only quiescent cells with no evidence of membrane blebbing were selected for study.
Swelling activated currents were measured in myocytes according to the method of Clemo & Baumgarten (1997). Briefly, electrodes were pulled from glass capillaries to give a final tip diameter of […] and a resistance of 0.5–1 MW when filled with the standard electrode filling solution (K aspartate 120 mM, KCl 10 mM, NaCl 10 mM, MgSO4 3 mM, Hepes 10 mM, pH 7.1). Whole cell currents were recorded using an Axoclamp 200A. Pulse and ramp protocols, voltage clamp data acquisition and off-line data analysis were controlled with software written in ASYST. Both step and ramp voltage clamp protocols were applied with a holding potential of −80 mV. Currents were digitized at 1 KHz and low-pass filtered at 200 Hz. Whole cell currents were recorded using the amphotericin perforated patch technique. Solution changes were performed by bath perfusion that was completed within 10 s. The standard bath solution contained (NaCl 65 mM, KCl 5 mM, CaSO4 2.5 mM, MgSO4 0.5 mM, glucose 10 mM and Hepes 10 mM pH 7.2, and 130 mM (IT) or 283 mM (1.5 T) mannitol to control the osmolarity. Isotonic osmolarity was taken as 296 mosm (IT) and 444 mosm for hypertonic solution (1.5 T).
The myocytes were exposed to 1.0 T and 1.5 T solution in the absence (1.0 TC, 1.5 TC) and presence (1.0 TTX, 1.5 TTX) of 0.4 μM GsMTx-4. […] However, whole cell current was unaffected by GsMTx-4 when swelling-activated currents were inactivated by 1.5 T hypertonic saline (FIG. 9Bd). […] The remaining inward current is largely. ICI,swell. […]

ventricular myocytes = experiment: Myocyte volume by video microscopy in CHF rabbit ventricular myocytes; format: cell-based; details: 0.4 μM
Method: Myocyte volume was determined by visualization with an inverted Nikon Diaphot microscope equipped with Hoffman modulation optics and a high resolution TV camera coupled to a video frame-grabber. Images were captured on-line each time a ramp or step voltage clamp protocol was performed using a program written in C and assembler and linked to ASYST voltage-clamp software. A combination of commercial (MOCHA; SPSS) and custom (ASYST) programs were used to determine cell width, length, and area of the image. GsMTx-4 produced a cell volume reduction that is ˜40% of that produced by 1.5 T […] saline.

How did the “effect on inward ICir,swell” value ([1]; 1.0 T) turn out when “GCLEFWWKCNPNDDKCCRPKLKCSKLFKLCNFSFGK [GsMTx-4]” was run?
Its value is “significant reduction”.

And the “effect on outward ICI,swell” value ([1]; 1.0 T)?
The value was “no effect”.

What about the “effect on whole cell current when swelling-activated currents inactivated” value ([1]; 1.5 T hypertonic saline) of the same sequence?
Its value is “unaffected”.

And the “cell volume reduction relative to that produced by 1.5 T saline” value (ventricular myocytes)?
The value was roughly 40%.
